For this assay, the system named is gastric acid secretion. Nature of the assay: Lumen perfused stomach of the anaesthetized rat: inhibition of acid secretion evoked by histamine plus acetylcholine. It is filed as in vivo. The note with it: drug alone. On the procedure:
Experiments in lumen perfused stomach of the anaesthetized rat were performed, evoking acid secretion by histamin (0.5 mg/kg/h i.v.) and acetylcholine (0.5 mg/kg/h i.v.) given in combination. These two combined secretagogues evoked a response which was about 80% of the maximal effect achievable by maximally effective dose of either acetylcholine (8 mg/kg/h i.v.) or histamine (8 mg/kg/h i.v.) alone.
As soon as a steady level of acid output was reached, a combination of mifentidine/pirenzepine (1:10), or of DA-5047/pirenzepine (1:10) under the form of the compositions of the present invention, or mifentidine, DA-5047 and pirenzepine alone were administered intravenously. Each dose was administered to 8 animals.
The obtained data were submitted to linear regression analysis in order to calculate the dose inhibiting 50% (ED₅₀) the response of which is reported in the following table II: […]

As for `CC(C)NC=Nc1ccc(-c2c[nH]cn2)cc1` [Mifentidine, N-isopropyl-Nʹ-[4-(imidazol-4-yl)phenyl]-formamidines], the Percent inhibition (dose 20 µg/kg i.v.) is listed as 20%, the Percent inhibition (dose 40 µg/kg i.v.) came to 36% and the Percent inhibition (dose 80 µg/kg i.v.) is recorded as 58%.
As for `CN1CCN(CC(=O)N2c3ccccc3C(=O)Nc3cccnc32)CC1` [Pirenzepine, reference compound], the Percent inhibition was 28% (dose 200 µg/kg i.v.), 46% (dose 400 µg/kg i.v.) and 62% (dose 800 µg/kg i.v.).
`Cc1nc(-c2ccc(N=CNC(C)C)cc2)c[nH]1` [DA-5047, N-isopropyl-Nʹ-[4-(2- -methyl-imidazol-4-yl)phenyl]-formamidine]: the Percent inhibition (dose 20 µg/kg i.v.) was determined as 21%, the Percent inhibition (dose 40 µg/kg i.v.) is recorded as 34% and the Percent inhibition (dose 80 µg/kg i.v.) came out at 52%.
